In experiment [1] the target is T1, Neuropeptide Y receptor type 1 (Homo sapiens, UniProt P25929).
T1 sequence (P25929 whole entry): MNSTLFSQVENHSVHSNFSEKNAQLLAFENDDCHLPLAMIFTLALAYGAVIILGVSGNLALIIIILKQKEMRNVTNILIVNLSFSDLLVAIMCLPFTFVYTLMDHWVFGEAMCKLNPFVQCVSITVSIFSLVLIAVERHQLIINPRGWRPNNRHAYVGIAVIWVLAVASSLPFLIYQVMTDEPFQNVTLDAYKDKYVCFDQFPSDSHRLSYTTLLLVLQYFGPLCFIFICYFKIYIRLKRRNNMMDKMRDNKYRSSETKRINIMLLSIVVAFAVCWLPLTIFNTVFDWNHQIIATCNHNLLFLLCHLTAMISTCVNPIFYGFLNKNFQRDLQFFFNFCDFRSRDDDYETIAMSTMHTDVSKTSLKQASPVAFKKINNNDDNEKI
In words: Binding affinity at cloned Neuropeptide Y-1 receptor expressed in AV-12 cells is evaluated. Type of experiment: cell-based, AV12.

Experiment [2] concerns SK-N-MC. As to the kind of experiment: Inhibition of NPY induced intracellular Ca++ mobilization in SK-N-MC cells is evaluated. It is filed as functional, cell-based, Homo sapiens.
Experiment [3] has as its system SK-N-MC. As to the kind of experiment: Tested to reverse NPY induced inhibition of forskolin-stimulated cAMP in SK-N-MC cells is evaluated. It is filed as functional, cell-based, Homo sapiens.
In experiment [4] the target is T1, Neuropeptide Y receptor type 1. In words: Binding affinity at cloned Neuropeptide Y receptor type 1 expressed in AV-12 cells is evaluated. Type of experiment: cell-based, AV12.

Values joined by “and” are separate entries in the source; they are usually repeats but may differ in a detail not shown here. Identical values can stand only once.

For the compound `CCOC(=O)CN1CCC(CCCn2c(COc3ccc(Cl)cc3)nc3c(C)cccc32)CC1`, the affinity in experiment [1], expressed as Ki, was 427 nM. Still for that read-out and setting: with `Cc1cccc2c1nc(COc1ccc(Cl)cc1)n2CCCC1CCN(CC(=O)N2CCCCC2)CC1` the figure was 136 nM; with `Cc1cccc2c1nc(COc1ccc(Cl)cc1)n2CCCC1CCN(CCCc2ccccc2)CC1`, 57 nM; with `Cc1cccc2c1nc(COc1ccc(Cl)cc1)n2CCCC1CCN(CCN2CCCCC2)CC1`, 37 nM. Still for that read-out and setting: with `Cc1cccc2c1nc(COc1ccc(Cl)cc1)n2CCCC1CCN(CCCC(N)=O)CC1` the figure was 88 nM; with `Cc1cccc2c1nc(COc1ccc(Cl)cc1)n2CCCC1CCN(C)CC1`, 52 nM; with `Cc1cccc2c1nc(COc1ccc(Cl)cc1)n2CCCC1CCN(CCCCN2CCCCC2)CC1`, 52 nM and 5.7 nM. For `Cc1cccc2c1nc(COc1ccc(Cl)cc1)n2CCCC1CCN(Cc2ccccc2)CC1`, in experiment [1], affinity was put at a Ki of 109 nM. In experiment [1], `Cc1cccc2c1nc(COc1ccc(Cl)cc1)n2CCCC1CCNCC1` displayed a Ki of 335 nM. In experiment [1], `Cc1cccc2c1nc(COc1ccc(Cl)cc1)n2CCCC1CCN(CCCC(=O)O)CC1` came in with a Ki of 1630 nM. Same read-out and setting: for `Cc1cccc2c1nc(COc1ccc(Cl)cc1)n2CCCC1CCN(CCCC(=O)N2CCCCC2)CC1` the value was 21 nM; for `Cc1cccc2c1nc(COc1ccc(Cl)cc1)n2CCCC1CCN(CCC(C)C)CC1`, 11 nM. Still for that read-out and setting: for `CCOC(=O)CCCN1CCC(CCCn2c(COc3ccc(Cl)cc3)nc3c(C)cccc32)CC1` the value was 29 nM.

Take `Cc1cccc2c1nc(COc1ccc(Cl)cc1)n2CCCC1CCN(CCCN2CCCCC2)CC1`: the Ki in experiment [1] worked out at 4.5 nM; with SK-N-MC [2], 26 nM; with SK-N-MC [3], 46 nM. The compound `Cc1cccc2c1nc(COc1ccc(Cl)cc1)n2CCCC1CCN(CCc2ccccc2)CC1` returned an inhibitory constant (Ki) in experiment [1] of 29 nM. The same measure, in the same setting: for `CCCN1CCC(CCCn2c(COc3ccc(Cl)cc3)nc3c(C)cccc32)CC1` the value was 29 nM; for `Cc1cccc2c1nc(COc1ccc(Cl)cc1)n2CCCC1CCN(CC(=O)O)CC1`, 2190 nM. On the same count and under the same terms, with `Cc1cccc2c1nc(COc1ccc(Cl)cc1)n2CCCC1CCN(C(=O)CCN2CCCCC2)CC1` the figure was 260 nM.

In turn, `Clc1ccc(OCc2nc3c(OCCCN4CCCCC4)cccc3n2CCCC2CCCNC2)cc1` (stereo unspecified) came in with a Ki in experiment [4] of 2 nM.

The record behind these values is ChEMBL document CHEMBL1130762, “Structure-activity relationships of a series of 1-substituted-4-methylbenzimidazole neuropeptide Y-1 receptor antagonists” (Bioorg Med Chem Lett, 1998).
